Measurements reported in US5288709A, “Erythromycin derivatives” (priority 1991, dated 1994).
Values after ≈ are worked out from the molar mass of the structure shown. Read-outs that look alike come from different tables or passages of the source.

Legend:
Assay in all cases: In-vitro antimicrobial activity primary screen (agar dilution MIC)
Format in all cases: cell-based
[1] = test system: Staphylococcus aureus CMX 686B; conditions: CMX686B, BHI agar, 20-24 h, read-out: MIC
Description: (§1) The antimicrobial spectra of several of the compounds of the present invention were tested as described below.
(§2) Twelve petri dishes containing successive aqueous dilutions of the test compounds, mixed with 10 mL of sterilized Brain Heart Infusion (BHI) agar (Difco 0418-01-5), were prepared. Each plate was inoculated with 1:100 (or 1:10 for slow growing strains (primarily Micrococcus and Streptococcus) dilutions of up to 32 different microorganisms, using a Steers replicator block. The inoculated plates were incubated at 35 37° C. for 20-24 hours. In addition, a control plate, using BHI agar containing no test compound, was prepared and incubated at the beginning and the end of each test.
(§3) An additional plate containing a compound having known susceptibility patterns for the organisms being tested and belonging to the same antibiotic class as the test compounds was also prepared and incubated as a further control, as well as to provide test-to test comparability. Erythromycin A was used for this purpose.
(§4) After incubation, each plate was read. The MIC (minimum inhibitory concentration) is defined as the lowest concentration of test compound yielding no growth, a slight haze, or sparsely isolated colonies on the inoculum spot as compared to the growth control containing no test compound.

[2] = test system: Staphylococcus aureus CMX 503A; conditions: Staphylococcus aureus, CMX503A, 24 h, BHI agar, 20-24 h, read-out: MIC
Description: as §1, §2, §3, §4

[3] = test system: Staphylococcus aureus CMX 553; conditions: Staphylococcus aureus, CMX553, 24 h, BHI agar, 20-24 h, read-out: MIC
Description: as §1, §2, §3, §4

[4] = test system: Enterococcus faecium ATCC 8043; conditions: Enterococcus faecium, ATCC8043, 24 h
Description: as §1, §2
(§5) An additional plate containing a compound having known susceptibility patterns for the organisms being tested and belonging to the same antibiotic class as the test compounds was also prepared and incubated as a further control, as well as to provide test-to test comparability.
as §4

Escherichia coli DC-2 = conditions: Escherichia coli DC-2, BHI agar, 20-24 h
Description: as §1, §2, §5, §4

[5] = test system: Staphylococcus aureus ATCC 6538P; conditions: Staphylococcus aureus, ATCC6538P, 24 h, BHI agar, 20-24 h
Description: as §1, §2, §5, §4

[6] = test system: Streptococcus bovis A5169; conditions: Streptococcus equinus, A5169, 24 h, BHI agar, 20-24 h
Description: as §1, §2, §5, §4

Acinetobacter SP CMX 669 = test system: Acinetobacter SP CMX 669
Description: as §1, §2, §5, §4

[7] = test system: Micrococcus luteus ATCC 9341; conditions: 20-24 h
Description: as §1, §2, §5, §4

[8] = test system: Pseudomonas aeruginosa K799/61; conditions: Pseudomonas aeruginosa K799/61; BHI agar, 20-24 h; read-out: MIC
Description: as §1, §2, §5, §4

[9] = test system: Klebsiella pneumoniae ATCC 8045; conditions: Klebsiella pneumoniae ATCC 8045, BHI agar, 20-24 h
Description: as §1, §2, §5, §4

[10] = test system: Providencia stuartii CMX 640
Description: as §1, §2, §5, §4

[11] = test system: Staphylococcus aureus 45 RAR2; conditions: Staphylococcus aureus, 45RAR2, 24 h, BHI agar, 20-24 h
Description: as §1, §2, §5, §4

[12] = test system: Pseudomonas aeruginosa A5007
Description: as §1, §2, §5, §4

[13] = test system: Streptococcus pyrogenes 2548 INDUC; conditions: BHI agar, 20-24 h, read-out: MIC
Description: as §1, §2, §5, §4

Escherichia coli SS = conditions: BHI agar, 20-24 h
Description: as §1, §2, §5, §4

[14] = test system: Micrococcus luteus ATCC 4698; conditions: Micrococcus luteus, ATCC4698, 24 h, BHI agar, 20-24 h
Description: as §1, §2, §5, §4

[15] = test system: Streptococcus pyrogenes EES61; conditions: BHI agar, 20-24 h, read-out: MIC
Description: as §1, §2, §5, §4

[16] = test system: Staphylococcus epidermidis 3519; conditions: BHI agar, 20-24 h
Description: as §1, §2, §5, §4

[17] = test system: Enterobacter aerogenes ATCC 13048; conditions: Klebsiella aerogenes, Enterobacter aerogenes ATCC 13048, BHI agar, 20-24 h
Description: as §1, §2, §5, §4

Staphylococcus aureus 45 = conditions: BHI agar, 20-24 h
Description: as §1, §2, §5, §4

Escherichia coli H560 = conditions: Escherichia coli H560, BHI agar, 20-24 h
Description: as §1, §2, §5, §4

[18] = test system: Pseudomonas aeruginosa K799/WT
Description: as §1, §2, §5, §4

[19] = test system: Streptococcus agalactiae CMX 508; conditions: 20-24 h
Description: as §1, §2, §5, §4

Escherichia coli JUHL = conditions: Escherichia coli JUHL, BHI agar, 20-24 h
Description: as §1, §2, §5, §4

[20] = test system: Staphylococcus aureus A5177; conditions: Staphylococcus aureus A5177; BHI agar, 20-24 h; read-out: MIC
Description: as §1, §2, §5, §4

Pseudomonas cepacia 2961 = conditions: BHI agar, 20-24 h
Description: as §1, §2, §5, §4

[21] = test system: Pseudomonas aeruginosa BMH10; conditions: BHI agar, 20-24 h
Description: as §1, §2, §5, §4

CC[C@H]1OC(=O)[C@H](C)[C@@H](O[C@H]2C[C@@](C)(OC)[C@H](NC(C)=O)[C@H](C)O2)[C@H](C)[C@@H](O[C@@H]2O[C@H](C)C[C@H](N(C)C)[C@H]2O)[C@](C)(O)C[C@@H](C)[C@@H]2O[C@@]1(C)C(=O)[C@H]2C [Example 10, (4"R,9S) 4"-Acetylamino-9-deoxo-4",11,12-trideoxy-9,12-epoxy-11-oxoerythromycin A]
MIC [1]: 0.39 µg/mL (≈ 0.515 µM)
MIC [2]: 0.39 µg/mL (≈ 0.515 µM)
MIC [3]: 0.39 µg/mL (≈ 0.515 µM)
MIC [4]: 0.2 µg/mL (≈ 0.264 µM)
MIC (Escherichia coli DC-2; DC2, read-out: MIC): > 100 µg/mL
MIC [5]: 0.39 µg/mL (≈ 0.515 µM)
MIC [6]: 0.2 µg/mL (≈ 0.264 µM)
MIC (Acinetobacter SP CMX 669; SPCMX669, Acinetobacter SP CMX 669, BHI agar, 20-24 h, read-out: MIC): 50 µg/mL (≈ 66.1 µM)
MIC ([7]; ATCC9341, BHI agar, read-out: MIC): 0.05 µg/mL (≈ 0.0661 µM)
MIC [8]: 1.56 µg/mL (≈ 2.06 µM)
MIC ([9]; ATCC8045, read-out: MIC): > 100 µg/mL
MIC ([10]; CMX640, Providencia stuartii CMX 640, BHI agar, 20-24 h, read-out: MIC): > 100 µg/mL
MIC [11]: 0.39 µg/mL (≈ 0.515 µM)
MIC ([12]; Pseudomonas aeruginosa A5007, BHI agar, 20-24 h, read-out: MIC): > 100 µg/mL
MIC [13]: 0.78 µg/mL (≈ 1.03 µM)
MIC (Escherichia coli SS; read-out: MIC): 0.39 µg/mL (≈ 0.515 µM)
MIC [14]: 0.2 µg/mL (≈ 0.264 µM)
MIC [15]: 0.02 µg/mL (≈ 0.0264 µM)
MIC ([16]; Staphylococcus epidermidis, 3519, 24 h): 0.39 µg/mL (≈ 0.515 µM)
MIC ([17]; ATCC13048, read-out: MIC): > 100 µg/mL
MIC (Staphylococcus aureus 45; read-out: MIC): 0.39 µg/mL (≈ 0.515 µM)
MIC (Escherichia coli H560; read-out: MIC): 100 µg/mL (≈ 132 µM)
MIC ([18]; Pseudomonas aeruginosa K799/WT, BHI agar, 20-24 h, read-out: MIC): > 100 µg/mL
MIC ([19]; Streptococcus agalactiae, CMX508, 24 h, BHI agar): 0.1 µg/mL (≈ 0.132 µM)
MIC (Escherichia coli JUHL; read-out: MIC): > 100 µg/mL
MIC [20]: 0.39 µg/mL (≈ 0.515 µM)
MIC (Pseudomonas cepacia 2961; Burkholderia cepacia, read-out: MIC): > 100 µg/mL
MIC ([21]; read-out: MIC): > 100 µg/mL

CC[C@H]1OC(=O)[C@H](C)[C@@H](O[C@H]2C[C@@](C)(OC)[C@@H](OC(N)=O)[C@H](C)O2)[C@H](C)[C@@H](O[C@@H]2O[C@H](C)C[C@H](N(C)C)[C@H]2O)[C@](C)(O)C[C@@H](C)[C@@H]2O[C@@]1(C)[C@@H](O)[C@H]2C [Example 17, (9S,11S)-4"-O-Aminocarbonyl-9-deoxo-12-deoxy-9,12-epoxyerythromycin A]
MIC [1]: 0.39 µg/mL (≈ 0.513 µM)
MIC [2]: 0.39 µg/mL (≈ 0.513 µM)
MIC [3]: 0.39 µg/mL (≈ 0.513 µM)
MIC [4]: 0.2 µg/mL (≈ 0.263 µM)
MIC (Escherichia coli DC-2; Escherichia coli, DC2, 24 h): 50 µg/mL (≈ 65.7 µM)
MIC [5]: 0.2 µg/mL (≈ 0.263 µM)
MIC [6]: 0.05 µg/mL (≈ 0.0657 µM)
MIC (Acinetobacter SP CMX 669; Acinetobacter, SPCMX669, 24 h): 50 µg/mL (≈ 65.7 µM)
MIC ([7]; Micrococcus luteus, ATCC9341, 24 h, BHI agar): 0.05 µg/mL (≈ 0.0657 µM)
MIC [8]: 0.78 µg/mL (≈ 1.03 µM)
MIC ([9]; Klebsiella pneumoniae, ATCC8045, 24 h): 25 µg/mL (≈ 32.9 µM)
MIC ([10]; Providencia stuartii, CMX640, 24 h): > 100 µg/mL
MIC [11]: 0.39 µg/mL (≈ 0.513 µM)
MIC ([12]; Pseudomonas aeruginosa, A5007, 24 h): > 100 µg/mL
MIC [13]: 1.56 µg/mL (≈ 2.05 µM)
MIC (Escherichia coli SS; Escherichia coli, 24 h): 0.2 µg/mL (≈ 0.263 µM)
MIC [14]: 0.2 µg/mL (≈ 0.263 µM)
MIC [15]: 0.02 µg/mL (≈ 0.0263 µM)
MIC ([16]; read-out: MIC): 0.78 µg/mL (≈ 1.03 µM)
MIC ([17]; ATCC13048, 24 h): 50 µg/mL (≈ 65.7 µM)
MIC (Staphylococcus aureus 45; Staphylococcus aureus, 45, 24 h): 0.78 µg/mL (≈ 1.03 µM)
MIC (Escherichia coli H560; Escherichia coli, H560, 24 h): 25 µg/mL (≈ 32.9 µM)
MIC ([18]; Pseudomonas aeruginosa, K799/WT, 24 h): 25 µg/mL (≈ 32.9 µM)
MIC ([19]; CMX508, BHI agar, read-out: MIC): 0.02 µg/mL (≈ 0.0263 µM)
MIC (Escherichia coli JUHL; Escherichia coli, 24 h): 50 µg/mL (≈ 65.7 µM)
MIC [20]: 12.5 µg/mL (≈ 16.4 µM)
MIC (Pseudomonas cepacia 2961; Burkholderia cepacia, 2961, 24 h): > 100 µg/mL
MIC ([21]; Pseudomonas aeruginosa, BMH10, 24 h): 25 µg/mL (≈ 32.9 µM)
